The source of these data is ChEMBL document CHEMBL1123651, “alpha-Melanotropin: the minimal active sequence in the frog skin bioassay” (J Med Chem, 1987).

Where a SMILES comes first, the peptide text is derived from it. [ ]: non-standard residue; d: D form. Nle = CCCC[C@H](N)C(=O)O

This experiment concerns frog. The experiment is described as follows: In vitro potency relative to alpha-melanotropin (alpha-MSH), in the frog (Rana pipiens) skin bioassay. It is filed as functional.
Regarding `CC(=O)N[C@@H](CCCCN)C(N)=O`, the Relative potency came out at 0.

In turn, `CC(=O)N[C@@H](Cc1c[nH]cn1)C(=O)N[C@@H](Cc1ccccc1)C(=O)N[C@@H](CCCN=C(N)N)C(=O)N[C@@H](Cc1c[nH]c2ccccc12)C(N)=O` displayed a Relative potency of 5e-06.

In the case of `CCCC[C@H](NC(C)=O)C(=O)N[C@@H](CCC(=O)O)C(=O)N[C@@H](Cc1c[nH]cn1)C(=O)N[C@@H](Cc1ccccc1)C(=O)N[C@@H](CCCN=C(N)N)C(=O)N[C@@H](Cc1c[nH]c2ccccc12)C(=O)NCC(=O)N[C@@H](CCCCN)C(=O)N1CCC[C@H]1C(=O)N[C@H](C(N)=O)C(C)C`, the Relative potency was found to be 0.4.

For the molecule `CCCC[C@H](NC(C)=O)C(=O)N[C@@H](CCC(=O)O)C(=O)N[C@@H](Cc1c[nH]cn1)C(=O)N[C@@H](Cc1ccccc1)C(=O)N[C@@H](CCCN=C(N)N)C(=O)N[C@@H](Cc1c[nH]c2ccccc12)C(=O)NCC(N)=O`, the Relative potency amounted to 0.002.

Molecule `CSCC[C@H](NC(C)=O)C(=O)N[C@@H](CCC(=O)O)C(=O)N[C@@H](Cc1c[nH]cn1)C(=O)N[C@@H](Cc1ccccc1)C(=O)N[C@@H](CCCN=C(N)N)C(=O)N[C@@H](Cc1c[nH]c2ccccc12)C(=O)NCC(N)=O` returned a Relative potency of 0.0005.

For `CC(=O)N[C@@H](Cc1ccccc1)C(=O)N[C@@H](CCCN=C(N)N)C(=O)N[C@@H](Cc1c[nH]c2ccccc12)C(=O)NCC(N)=O` (Ac-FRWG-NH2), the Relative potency amounted to 0.

On to `CC(=O)N[C@@H](Cc1c[nH]cn1)C(=O)N[C@@H](Cc1ccccc1)C(=O)N[C@@H](CCCN=C(N)N)C(N)=O` (Ac-His-Phe-Arg-NH2), for which the Relative potency came out at 0.

Take `CC(=O)N[C@@H](Cc1c[nH]cn1)C(=O)N[C@@H](Cc1ccccc1)C(N)=O` (Ac-His-Phe-NH2): the Relative potency worked out at 0.

As for `CC(=O)N[C@@H](CCCCN)C(=O)N1CCC[C@H]1C(=O)N[C@H](C(N)=O)C(C)C` (Ac-Lys-Pro-Val-NH2), the Relative potency is 0.

As for `CC(=O)N[C@@H](Cc1ccccc1)C(=O)N[C@@H](CCCN=C(N)N)C(N)=O` (Ac-Phe-Arg-NH2), the Relative potency worked out at 0.

In turn, `CCCC[C@H](NC(C)=O)C(=O)N[C@@H](CCC(=O)O)C(=O)N[C@@H](Cc1c[nH]cn1)C(=O)N[C@@H](Cc1ccccc1)C(=O)N[C@@H](CCCN=C(N)N)C(=O)N[C@@H](Cc1c[nH]c2ccccc12)C(=O)NCC(=O)N[C@@H](CCCCN)C(N)=O` (Ac-[Nle]EHFRWGK-NH2) had a Relative potency of 0.002.

For the molecule `CCCC[C@H](NC(C)=O)C(=O)N[C@@H](CCC(=O)O)C(=O)N[C@@H](Cc1c[nH]cn1)C(=O)N[C@@H](Cc1ccccc1)C(=O)N[C@@H](CCCN=C(N)N)C(=O)N[C@@H](Cc1c[nH]c2ccccc12)C(=O)NCC(=O)N[C@@H](CCCCN)C(=O)N1CCC[C@H]1C(N)=O` (Ac-[Nle]EHFRWGKP-NH2), the Relative potency was 0.18.

Molecule `N=C(N)NCCC[C@H](NC(=O)[C@@H](N)Cc1ccccc1)C(=O)O` (H-Phe-Arg-OH) showed a Relative potency of 0.

Ac-EHFRWG-NH2 yielded a Relative potency of 0.00014.

In turn, Ac-HFRWG-NH2 gave a Relative potency of 8e-05.

Molecule Ac-MEHFRWGKP-NH2 gave a Relative potency of 0.18.
